Data reported in patent US20060130244A1, “Aqueous composition for dyeing keratin fibres comprising a dye and a specific block copolymer” (priority 2004, published 2006).

Legend:
[1] = Solubility of dye in aqueous medium (test tube, visual appearance); format: physicochemical
Method: The dye tested is Astrazon Orange R (or Basic Orange 22).
In a first trial, an aqueous solution comprising 0.04% of dye is added to a test tube.
In a second trial, a solution comprising 0.04% of dye, followed by 0.05% by weight of a poly(sodium acrylate-b-acrylamide) diblock copolymer (copolymer of Example 2), are added to a test tube. […] This thus attests to the ability of the block polymers in accordance with the invention to increase the solubility of dyes that are difficult to solubilize in an aqueous medium.

[2] = Stability of dye in alkaline oxidizing medium (test tube, visual coloration); format: physicochemical; settings: ammoniacal solution
Method: The dye tested is Basic Red 76.
In a first trial, an ammoniacal solution at 0.04% by weight of dye at pH=9 was added to a test tube and the solution was left to stand for 1 hour.
In a second trial, an ammoniacal solution at 0.04% by weight of dye at pH=9 was added to a test tube in the presence of a poly(sodium acrylate-b-acrylamide) diblock copolymer, in which each block has, respectively, a number-average molecular mass of 5000 and 30 000, and in the presence of aqueous hydrogen peroxide at 3%, and the mixture is left to stand for 1 hour.

Astrazon Orange R
appearance of aqueous solution, with block copolymer ([1]; 0.04% of dye plus 0.05% by weight poly(sodium acrylate-b-acrylamide) diblock copolymer): clear solution
appearance of aqueous solution, dye alone ([1]; aqueous solution, 0.04% of dye, no copolymer): cloudy appearance

COc1ccccc1N=Nc1c(O)ccc2ccc([N+](C)(C)C)cc12.[Cl-] [Basic Red 76]
coloration of the solution after standing 1 hour, dye alone ([2]; 0.04% by weight of dye, pH 9, no copolymer): visible loss of coloration
coloration of the solution after standing 1 hour, with block copolymer ([2]; 0.04% dye, pH 9, with poly(sodium acrylate-b-acrylamide) diblock copolymer (5000/30 000) and 3% aqueous hydrogen peroxide): remains stable
